Tested on: SJL mouse EAE model of multiple sclerosis
Assay: Experimental Allergic Encephalomyelitis (EAE) in SJL mice, clinical neurological scoring 0-5
Format: in vivo
Conditions: 10 mg/kg orally once a day
Procedure: Experimental Allergic Encephalomyelitis (EAE) is a central nervous system, autoimmune, demyleinating disease, that mimics many aspects of multiple sclerosis. Acute models of murine EAE are often utilised to evaluate the efficacy of therapeutics.
Acclimatised SJL mice were sensitised by a subcutaneous injection proteolipid protein (PLP) in Freund's complete adjuvant (CFA) acting as an encephalitogenic inoculum. Innoculum was administered subcutaneously at a concentration of 125 μg PLP/300 μg CFA in a volume of 200 μl. 48 hours later, an intraperitoneal injection of pertussis toxin (PTX) was administered at a dose of 20 μg/kg, to increase blood-brain barrier permeability.
(+)-Erythro-2-tert-butylamino-1-(3-chlorophenyl)-propan-1-ol hydrochloride and copoxane were administered from the first day of the experiment and once a day until the end. (+)-Erythro-2-tert-butylamino-1-(3-chlorophenyl)-propan-1-ol hydrochloride was administered orally at a dose of 10 mg/kg. Copaxone was administered intraperitoneally at a dose of 25 mg/kg. Throughout the experiment, careful clinical examinations and body weights were taken to observe the well being of the animal. In addition, clinical scoring of the EAE symptoms was taken to the classical 0-5 scale, as follows: • 0 Normal reactions • 1 Tail weakness • 2 Hind leg weakness and paresis • 3 Hind leg paralysis • 4 Quadriplegia • 5 Moribund/death Results

C[C@H](NC(C)(C)C)[C@H](O)c1cccc(Cl)c1.Cl [(+)-erythro-2-tert-butylamino-1-(3-chlorophenyl)-propan-1-ol hydrochloride]
improvement in symptoms / disease resolution (compared to the vehicle): more rapid improvement in symptoms
maximal neurologic score (versus vehicle, 0-5 scale): no improvement
